Measurements published in US5482967A, “Condensed heterocyclic compounds, their production and use” (Takeda Chemical Industries, Ltd., priority 1992, dated 1996).
pIC50: −log10 of the molar value.

What follows are compounds tested against T1, acyl-CoA:cholesterol acyl transferase (ACAT) (Rattus norvegicus, UniProt Q7TQM4) (assay: Inhibitory action against acyl-CoA:cholesterol acyl transferase (ACAT), formation of labeled cholesterol ester, small intestine mucosal microsome fraction). Details: 10^-6 M; read-out: ACAT Inhibitory Rate (%).
T1 construct: small intestine mucosal microsome fraction of a 6-week-old male Sprague-Dawley rat; from tissue; host or cells: rat small intestine mucosa, microsome fraction
T1 sequence (Q7TQM4 1-524): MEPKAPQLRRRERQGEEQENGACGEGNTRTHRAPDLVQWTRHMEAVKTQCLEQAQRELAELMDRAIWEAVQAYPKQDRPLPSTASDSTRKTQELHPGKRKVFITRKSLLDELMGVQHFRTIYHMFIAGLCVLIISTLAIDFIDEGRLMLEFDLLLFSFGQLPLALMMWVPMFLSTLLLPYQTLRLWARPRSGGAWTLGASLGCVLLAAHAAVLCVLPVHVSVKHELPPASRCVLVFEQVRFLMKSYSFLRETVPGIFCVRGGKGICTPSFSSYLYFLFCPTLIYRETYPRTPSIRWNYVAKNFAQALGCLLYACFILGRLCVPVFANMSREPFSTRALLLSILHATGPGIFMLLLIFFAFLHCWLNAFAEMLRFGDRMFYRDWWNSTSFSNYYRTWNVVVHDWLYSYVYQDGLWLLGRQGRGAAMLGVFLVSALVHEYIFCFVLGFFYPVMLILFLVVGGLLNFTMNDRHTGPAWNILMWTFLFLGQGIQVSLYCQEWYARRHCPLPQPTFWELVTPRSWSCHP
Type: biochemical, male Sprague-Dawley rat
Protocol: An ACAT enzyme preparation was prepared from a small intestine mucosal microsome fraction of a 6-week-old male Sprague-Dawley rat, previously fasted for 20 hours, in accordance with the method described by Heider et al. in the Journal of Lipid Research, Vol. 24, page 1127 (1982).
ACAT activity was determined by measuring the amount of labeled cholesterol ester produced from [1-^14 C]-oleoyl-CoA and endogenous cholesterol, in accordance with the method of Helgerud et al. [Journal of Lipid Research, Vol. 22, page 271 (1981)].

inhibition at 1 µM	Compound
98.8%	CC(C)c1cccc(C(C)C)c1NC(=O)C[C@H]1CN(C)c2ccc(Cl)cc2[C@H]1c1ccccc1 (relative stereo) [Example 36, 3,4-cis-N-[2,6-Bis(1-methylethyl)phenyl]-6-chloro-1,2,3,4-tetrahydro-1-methyl-4-phenyl-3-quinolineacetamide]
99.4%	Cc1cccc(C(C)C)c1NC(=O)C[C@@H]1C(=O)N(C)c2ccc(Cl)cc2[C@H]1c1ccccc1 (relative stereo) [Example 23, 3,4-trans-6-Chloro-1-methyl-N-[2-methyl-6-(1-methylethyl)phenyl]-2-oxo-4-phenyl-1,2,3,4-tetrahydro-3-quinolineacetamide]
98.2%	COc1cc(OC)c(NC(=O)CC2C(=O)N(C)c3ccc(Cl)cc3N2c2ccccc2)c(OC)c1 (stereo not drawn) [Example 43, 6-Chloro-1,2,3,4-tetrahydro-1-methyl-2-oxo-4-phenyl-N-(2,4,6-trimethoxyphenyl)-3-quinoxalineacetamide]
97%	CC(C)c1cccc(C(C)C)c1NC(=O)CC1=C(c2ccccc2)c2cc(Cl)ccc2N(C)C1 [Example 99, N-[2,6-Bis(1-methylethyl)phenyl]-6-chloro-1,2-dihydro-1-methyl-4-phenyl-3-quinolineacetamide]
98.4%	Cc1cccc(C)c1NC(=O)C[C@@H]1C(=O)N(C)c2ccc(Cl)cc2[C@H]1c1ccccc1 (relative stereo) [Example 29, 3,4-trans-6-Chloro-N-(2,6-dimethylphenyl)-1,2,3,4-tetrahydro-1-methyl-2-oxo-4-phenyl-3-quinolineacetamide]
99.3%	COc1cccc(OC)c1NC(=O)Cc1oc(=O)c2ccc(Cl)cc2c1-c1ccccc1 [Example 76, 6-Chloro-N-(2,6-dimethoxyphenyl)-1-oxo-4-phenyl-1H-2-benzopyran-3-acetamide]
99.9%	Cc1ccc2c(c1)[C@@H](c1ccccc1)[C@H](CC(=O)Nc1c(C(C)C)cccc1C(C)C)C(=O)N2C (relative stereo) [Example 60, 3,4-trans-N-[2,6-Bis(1-methylethyl)phenyl]-1,2,3,4-tetrahydro-1,6-dimethyl-2-oxo-4-phenyl-3-quinolineacetamide]
99.1%	CC(C)c1cccc(C(C)C)c1NC(=O)CC1C(=O)N(C)c2ccc(Cl)cc2C1(C)c1ccccc1 (stereo not drawn) [Example 19, N-[2,6-Bis-(1-methylethyl)phenyl]-6-chloro-1,2,3,4-tetrahydro-1,4-dimethyl-2-oxo-4-phenyl-3-quinolineacetamide]
97.5%	Cc1cc(C)c(NC(=O)C[C@@H]2C(=O)N(C)c3ccc(Cl)cc3[C@H]2c2ccccc2)c(C)c1 (relative stereo) [Example 31, 3,4-trans-6-Chloro-1,2,3,4-tetrahydro-1-methyl-2-oxo-4-phenyl-N-(2,4,6-trimethylphenyl)-3-quinolineacetamide]
93.3%	Cc1cc2c(cc1C)N(C)C(=O)[C@@H](C(=O)Nc1ccc(F)cc1F)[C@@H]2c1ccccc1Cl (relative stereo) [Example 10, 3,4-trans-4-(2-Chlorophenyl)-N-(2,4-difluorophenyl)-1,2,3,4-tetrahydro-1,6,7-trimethyl-2-oxo-3-quinolinecarboxamide]
98.2%	CCOc1cc(F)cc(OCC)c1NC(=O)Cc1c(-c2ccccc2C)c2cc(Cl)ccc2oc1=O [Example 89, 6-Chloro-N-(2,6-diethoxy-4-fluorophenyl)-4-(2-methylphenyl)-2-oxo-2H-1-benzopyran-3-acetamide]
98.6%	CC(C)c1cccc(C(C)C)c1NC(=O)Cc1c(-c2ccccc2C(F)(F)F)c2cc(Cl)ccc2oc1=O [Example 94, N-[2,6-Bis(1-methylethyl)phenyl]-6-chloro-2-oxo-4-(2-trifluoromethylphenyl)-2H-1-benzopyran-3-acetamide]
95.7%	CC(C)c1cccc(C(C)C)c1NC(=O)Cc1c(-c2ccccc2)c2cc(Cl)ccc2oc1=O [Example 50, N-[2,6-Bis(1-methylethyl)phenyl]-6-chloro-2-oxo-4-phenyl-2H-1-benzopyran-3-acetamide]
90.3%	Cc1cccc(NC(=O)[C@H]2[C@H](c3ccc(F)cc3)c3ccccc3C(=O)N2C)c1 (relative stereo) [Example 9, 3,4-trans-4-(4-Fluorophenyl)-1,2,3,4-tetrahydro-2-methyl-N-(3-methylphenyl)-1-oxo-3-isoquinolinecarboxamide]
97.9%	Cc1cccc(C(C)C)c1NC(=O)C[C@H]1C(=O)N(C)c2ccc(Cl)cc2[C@H]1c1ccccc1 (relative stereo) [Example 22, 3,4-cis-6-Chloro-1,2,3,4-tetrahydro-1-methyl-N-[2-methyl-6-(1-methylethyl)phenyl]-2-oxo-4-phenyl-3-quinolineacetamide]

Each compound was assayed against substance P receptor (Homo sapiens, UniProt P25103) (assay: Radioligand receptor binding inhibitory assay using receptor from human lymphoblast cells (IM-9), 125I-BHSP). Details: IM-9 receptor, 25° C., 30 minutes.
substance P receptor, sequence (P25103 whole entry): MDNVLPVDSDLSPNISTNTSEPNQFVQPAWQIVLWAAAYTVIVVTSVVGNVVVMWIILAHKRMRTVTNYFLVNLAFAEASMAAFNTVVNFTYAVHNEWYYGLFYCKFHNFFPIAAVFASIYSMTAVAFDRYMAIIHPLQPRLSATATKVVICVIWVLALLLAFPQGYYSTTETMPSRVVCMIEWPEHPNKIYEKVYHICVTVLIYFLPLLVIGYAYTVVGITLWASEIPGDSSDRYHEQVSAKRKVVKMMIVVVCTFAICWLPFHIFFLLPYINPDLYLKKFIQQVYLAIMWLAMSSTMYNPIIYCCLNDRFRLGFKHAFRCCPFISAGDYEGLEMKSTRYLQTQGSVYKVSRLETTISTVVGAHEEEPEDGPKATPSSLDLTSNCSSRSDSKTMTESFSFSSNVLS
Procedure, shortened: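 IM-9 lymphoblast membranes (suspended at 1.5 mg/ml protein) were incubated with 125I-BHSP (0.46 KBq) at 25 °C for 30 min in 50 mM Tris-HCl pH 7.4 with BSA, protease inhibitors and 3 mM MnCl2. Nonspecific binding was defined with 2×10^-6 M substance P. Bound radioactivity was collected on PEI-treated GF/B filters and gamma-counted.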

pIC50	Compound
8.00	CNc1nc(C(=O)N(C)Cc2cc(C(F)(F)F)cc(C(F)(F)F)c2)c(-c2ccccc2)c2ccccc12 [Example 278, N-[3,5-Bis(trifluoromethyl)benzyl]-N-methyl-1-methylamino-4-phenyl-3-isoquinolinecarboxamide]
7.22	COc1ccccc1-c1c(C(=O)N(C)Cc2cc(C(F)(F)F)cc(C(F)(F)F)c2)c(=O)oc2ccc(Cl)cc12 [Example 251, N-[3,5-Bis(trifluoromethyl)benzyl]-6-chloro-4-(2-methoxyphenyl)-N-methyl-2-oxo-2H-1-benzopyran-3-carboxamide]
7.03	Cc1cc2c(-c3ccccc3)c(C(=O)NCc3cc(C(F)(F)F)cc(C(F)(F)F)c3)n(CC(N)=O)c(=O)c2cc1C [Example 225, N-[3,5-Bis(trifluoromethyl)benzyl]-2-carbamoylmethyl-1,2-dihydro-6,7-dimethyl-1-oxo-4-phenyl-3-isoquinolinecarboxamide]
7.07	Cc1cc2c(-c3ccccc3)c(C(=O)NCc3ccccc3Cl)n(C)c(=O)c2cc1C [Example 131, N-(2-Chlorobenzyl)-1,2-dihydro-2,6,7-trimethyl-1-oxo-4-phenyl-3-isoquinolinecarboxamide]
8.28	Cc1ccc2c(=O)oc(C(=O)N(C)Cc3cc(C(F)(F)F)cc(C(F)(F)F)c3)c(-c3ccccc3)c2c1 [Example 247]
7.80	CN(Cc1cc(C(F)(F)F)cc(C(F)(F)F)c1)C(=O)c1cnc2ccc(Cl)cc2c1-c1ccccc1 [Example 264, N-[3,5-Bis(trifluoromethyl)benzyl]-6-chloro-N-methyl-4-phenyl-3-quinolinecarboxamide]
8.74	CN(Cc1cc(C(F)(F)F)cc(C(F)(F)F)c1)C(=O)c1c(-c2ccccc2)c2c(c(=O)n1C)CCCC2 [Example 186, N-[3,5-Bis(trifluoromethyl)benzyl]-1,2,5,6,7,8-hexahydro-N-2-dimethyl-1-oxo-4-phenyl-3-isoquinolinecarboxamide]
8.47	CN(Cc1cc(C(F)(F)F)cc(C(F)(F)F)c1)C(=O)c1c(-c2ccccc2)c2cc(Cl)ccc2c(=O)n1C [Example 174, N-[3,5-Bis(trifluoromethyl)benzyl]-6-chloro-1,2-dihydro-N,2-dimethyl-1-oxo-4-phenyl-3-isoquinolinecarboxamide]
8.04	CCOC(=O)CCn1c(C(=O)N(C)Cc2cc(C(F)(F)F)cc(C(F)(F)F)c2)c(-c2ccccc2)c2ccccc2c1=O [Example 180, N-[3,5-Bis(trifluoromethyl)benzyl]-2-(2-ethoxycarbonylethyl)-1,2-dihydro-N-methyl-1-oxo-4-phenyl-3-isoquinolinecarboxamide]
